Experimental findings from patent US20070185149A1, “Novel amido-substituted hydroxy-6-phenylphenanthridines and their use as pde4 inhibtors” (ALTANA PHARMA AG, priority 2004, published 2007) are described below.

Structures are written as SMILES.

The target of the assay is T1, PDE4B2 (Homo sapiens, UniProt Q07343).
T1 construct: made in house; host or cells: SF21 insect cells (baculovirus; virus prepared in SF9 cells)
T1 sequence (Q07343 1-564 isoform Q07343-2): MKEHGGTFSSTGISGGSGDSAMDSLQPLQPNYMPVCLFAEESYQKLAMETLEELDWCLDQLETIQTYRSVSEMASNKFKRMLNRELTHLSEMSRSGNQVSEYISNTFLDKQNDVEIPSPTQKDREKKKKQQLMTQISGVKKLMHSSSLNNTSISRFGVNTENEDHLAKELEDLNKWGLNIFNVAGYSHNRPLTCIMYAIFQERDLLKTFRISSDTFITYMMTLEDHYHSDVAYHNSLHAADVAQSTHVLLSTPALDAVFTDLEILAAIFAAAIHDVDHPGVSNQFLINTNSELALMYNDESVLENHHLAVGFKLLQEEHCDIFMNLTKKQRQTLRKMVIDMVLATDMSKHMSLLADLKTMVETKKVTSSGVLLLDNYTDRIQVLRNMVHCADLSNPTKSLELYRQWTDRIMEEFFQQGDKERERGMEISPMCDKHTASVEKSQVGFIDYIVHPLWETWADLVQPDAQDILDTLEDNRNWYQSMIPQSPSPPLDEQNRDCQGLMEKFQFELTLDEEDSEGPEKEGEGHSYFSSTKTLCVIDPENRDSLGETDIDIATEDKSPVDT
As to the kind of experiment: Inhibition of PDE4 activity: PDE4B2 [3H]cAMP SPA enzyme assay. Conditions: recombinant PDE4B2 (SF21 cell supernatant), modified SPA test, 0.5 μM cAMP, 15 min at 37° C.; read-out: Inhibition of the PDE4 activity, −log IC50 (converted). The class given is biochemical. As for the experimental part: The PDE4B2 (GB no. M97515) was a gift of Prof. M. Conti (Stanford University, USA). It was amplified from the original plasmid (pCMV5) via PCR with primers Rb9 (5′-[…]-3′) and Rb10 (5′-[…]-3′) and cloned into the pCR-Bac vector (Invitrogen, Groningen, NL).
The recombinant baculovirus was prepared by means of homologous recombination in SF9 insect cells.
The expression plasmid was cotransfected with Bac-N-Blue (Invitrogen, Groningen, NL) or Baculo-Gold DNA (Pharmingen, Hamburg) using a standard protocol (Pharmingen, Hamburg). Wt virus-free recombinant virus supernatant was selected using plaque assay methods. After that, high-titre virus supernatant was prepared by amplifying 3 times. PDE was expressed in SF21 cells by infecting 2×10^6 cells/ml with an MOI (multiplicity of infection) between 1 and 10 in serum-free SF900 medium (Life Technologies, Paisley, UK). The cells were cultured at 28° C. for 48-72 hours, after which they were pelleted for 5-10 min at 1000 g and 4° C.
The SF21 insect cells were resuspended, at a concentration of approx. 10^7 cells/ml, in ice-cold (4° C.) homogenization buffer (20 mM Tris, pH 8.2, containing the following additions: 140 mM NaCl, 3.8 mM KCl, 1 mM EGTA, 1 mM MgCl2, 10 mM β-mercaptoethanol, 2 mM benzamidine, 0.4 mM Pefablock, 10 μM leupeptin, 10 μM pepstatin A, 5 μM trypsin inhibitor) and disrupted by ultrasonication. The homogenate was then centrifuged for 10 min at 1000×g and the supernatant was stored at −80° C. until subsequent use (see below). The protein content was determined by the Bradford method (BioRad, Munich) using BSA as the standard.
PDE4B2 activity is inhibited by the said compounds in a modified SPA (scintillation proximity assay) test, supplied by Amersham Biosciences (see procedural instructions “phosphodiesterase [3H]cAMP SPA enzyme assay, code TRKQ 7090”), carried out in 96-well microtitre plates (MTP's). The test volume is 100 μl and contains 20 mM Tris buffer (pH 7.4), 0.1 mg of BSA (bovine serum albumin)/ml, 5 mM Mg^2+, 0.5 μM cAMP (including about 50,000 cpm of [3H]cAMP), 1 μl of the respective substance dilution in DMSO and sufficient recombinant PDE (1000×g supernatant, see above) to ensure that 10-20% of the cAMP is converted under the said experimental conditions. […] After a preincubation of 5 min at 37° C., the reaction is started by adding the substrate (cAMP) and the assay is incubated for a further 15 min; after that, it is stopped by adding SPA beads (50 μl). In accordance with the manufacturer's instructions, the SPA beads had previously been resuspended in water, but were then diluted 1:3 (v/v) in water; the diluted solution also contains 3 mM IBMX to ensure a complete PDE activity stop. After the beads have been sedimented (>30 min), the MTP's are analyzed in commercially available […]. The corresponding IC50 values of the compounds for the inhibition of PDE activity are determined from the concentration-effect curves by means of non-linear regression.
On to `COc1cc2c(cc1OC(F)F)[C@H]1C[C@H](O)CC[C@H]1N=C2c1ccc(C(=O)N2CCN(CC(=O)Nc3ccccn3)CC2)cc1` (racemic) [Compound 31, 2-[4(1-{4-[(2RS,4aRS,10bRS)-9-(1,1-Difluoro-methoxy)-2-hydroxy-8-methoxy-1,2,3,4,4a,10b-hexahydro-phenanthridin-6-yl]-phenyl}-methanoyl)-piperazin-1-yl]-N-pyridin-2-yl-acetamide], for which the half-maximal inhibitory concentration (IC50) was 0.955 to 8.71 nM. Take `COc1cc2c(cc1OC)[C@H]1C[C@H](O)CC[C@H]1N=C2c1ccc(C(=O)N2CCN(CC(=O)N3CCCC3)CC2)cc1` (racemic) [Compound 12, 2-(4-{1-[4-((2RS,4aRS,10bRS)-2-Hydroxy-8,9-dimethoxy-1,2,3,4,4a,10b-hexahydro-phenanthridin-6-yl)-phenyl]-methanoyl}-piperazin-1-yl)-1-pyrrolidin-1-yl-ethanone]: the concentration for half-maximal inhibition (IC50) was 0.955 to 8.71 nM.

In the case of `CCN(CCOC)C(=O)c1ccc(C2=NC3CCC(O)CC3c3cc(OC)c(OC)cc32)cc1` (stereo not shown) [Compound 10], the IC50 is 0.955 to 8.71 nM. Consider `COc1cc2c(cc1OC)[C@H]1C[C@H](O)CC[C@H]1N=C2c1ccc(C(=O)Nc2cnc3ccccc3c2)cc1` (racemic) [Compound 6, 4-((2RS,4aRS,10bRS)-2-Hydroxy-8,9-dimethoxy-1,2,3,4,4a,10b-hexahydro-phenanthridin-6-yl)-N-quinolin-3-yl-benzamide], for which the IC50 is 0.955 to 8.71 nM. Take `COc1cc2c(cc1OC)[C@H]1C[C@H](O)CC[C@H]1N=C2c1ccc(C(=O)NCCc2cccnc2)cc1` (racemic) [Compound 21, 4-((2RS,4aRS,10bRS)-2-Hydroxy-8,9-dimethoxy-1,2,3,4,4a,10b-hexahydro-phenanthridin-6-yl)-N-(2-pyridin-3-yl-ethyl)-benzamide]: the IC50 is 0.955 to 8.71 nM. In the case of `COc1cc2c(cc1OC(F)F)[C@H]1C[C@H](O)CC[C@H]1N=C2c1ccc(C(=O)NC2CC2)cc1` (racemic) [Compound 25, N-Cyclopropyl-4-[(2RS,4aRS,10bRS)-9-(1,1-difluoro-methoxy)-2-hydroxy8-methoxy-1,2,3,4,4a,10b-hexahydro-phenanthridin-6-yl]-benzamide], the IC50 was 0.955 to 8.71 nM. As for `COc1cc2c(cc1OC(F)F)[C@H]1C[C@H](O)CC[C@H]1N=C2c1ccc(C(=O)N2CCN(CCN(C)C)CC2)cc1` (racemic) [Compound 35, 1-{4-[(2RS,4aRS,10bRS)-9-(1,1-Difluoro-methoxy)-2-hydroxy-8-methoxy-1,2,3,4,4a,10b-hexahydro-phenanthridin-6-yl]-phenyl}-1-[4-(2-dimethylamino-ethyl)-piperazin-1-yl]-methanone], the IC50 was 0.955 to 8.71 nM.

Take `COc1cc2c(cc1OC)[C@H]1C[C@H](O)CC[C@H]1N=C2c1ccc(C(=O)NC2CC2)cc1` (racemic) [Compound 11, N-Cyclopropyl-4-((2RS,4aRS,10bRS)-2-hydroxy-8,9-dimethoxy-1,2,3,4,4a,10b-hexahydro-phenanthridin-6-yl)-benzamide]: the IC50 was 0.955 to 8.71 nM.

For the molecule `COc1cc2c(cc1OC)C1CC(O)CCC1N=C2c1ccc(C(=O)N2CCN(c3ccncc3)CC2)cc1` (stereo not shown) [Compound 18], the IC50 was 0.955 to 8.71 nM. `COCCN(CCOC)C(=O)c1ccc(C2=N[C@@H]3CC[C@@H](O)C[C@@H]3c3cc(OC(F)F)c(OC)cc32)cc1` (racemic) [Compound 26, 4-[(2RS,4aRS,10bRS)-9-(1,1-Difluoro-methoxy)-2-hydroxy-8-methoxy-1,2,3,4,4a,10b-hexahydro-phenanthridin-6-yl]-N,N-bis(2-methoxy-ethyl)-benzamide]: the concentration for half-maximal inhibition (IC50) is 0.955 to 8.71 nM. Turning to `COc1cc2c(cc1OC)[C@H]1C[C@H](O)CC[C@H]1N=C2c1ccc(C(=O)NNC(=O)N2CCOCC2)cc1` (racemic) [Compound 22, 4-((2RS,4aRS,10bRS)-2-Hydroxy-8,9-dimethoxy-1,2,3,4,4a,10b-hexahydro-phenanthridin-6-yl)benzoic acid N′-(1-morpholin-4-yl-methanoyl)-hydrazide], the concentration for half-maximal inhibition (IC50) was 0.955 to 8.71 nM.

In the case of `COc1cc2c(cc1OC(F)F)C1CC(O)CCC1N=C2c1ccc(C(=O)N2CCN(CC(=O)N3CCOCC3)CC2)cc1` (stereo not drawn) [Compound 32, 2-[4-(1-{4-[(2RS,4aRS,10bRS)-9-(1,1-Difluoro-methoxy)-2-hydroxy-8-methoxy-1,2,3,4,4a,10bhexahydro-phenanthridin-6-yl]-phenyl}-methanoyl)-piperazin-1-yl]-1-morpholin-4-yl-ethanone], the IC50 was 0.955 to 8.71 nM. The result for `COc1cc2c(cc1OC(F)F)[C@H]1C[C@H](O)CC[C@H]1N=C2c1ccc(C(=O)N2CCN(c3ccncc3)CC2)cc1` (racemic) [Compound 30, 1-{4-[(2RS,4aRS,10bRS)-9-(1,1-Difluoro-methoxy)-2-hydroxy-8-methoxy-1,2,3,4,4a,10b-hexahydro-phenanthridin-6-yl]-phenyl}-1-(4-pyridin-4-yl-piperazin-1-yl)-methanone] reads 0.955 to 8.71 nM; that for `COc1cc2c(cc1OC)C1CC(O)CCC1N=C2c1ccc(C(=O)NCCN2CCOCC2)cc1` (stereo not shown) [Compound 1], 0.955 to 8.71 nM. With `COc1cc2c(cc1OC)C1CC(O)CCC1N=C2c1ccc(C(=O)NCCCN2CCOCC2)cc1` (stereo not shown) [Compound 2], the IC50 is 0.955 to 8.71 nM.

For the molecule `COc1cc2c(cc1OC(F)F)[C@H]1C[C@H](O)CC[C@H]1N=C2c1ccc(C(=O)NCCN2CCOCC2)cc1` (racemic) [Compound 27, 4-[(2RS,4aRS,10bRS)-9-(1,1-Difluoro-methoxy)-2-hydroxy-8-methoxy-1,2,3,4,4a,10b-hexahydro-phenanthridin-6-yl]-N-(2-morpholin-4-yl-ethyl)-benzamide], the IC50 was 0.955 to 8.71 nM.

As to `COc1cc2c(cc1OC(F)F)[C@H]1C[C@H](O)CC[C@H]1N=C2c1ccc(C(=O)N2CCN(CCN3CCOCC3)CC2)cc1` (racemic) [Compound 29, 1-{4-[(2RS,4aRS,10bRS)-9-(1,1-Difluoro-methoxy)-2-hydroxy-8-methoxy-1,2,3,4,4a,10b-hexahydro-phenanthridin-6-yl]-phenyl}-1-[4(2-morpholin-4-yl-ethyl)-piperazin-1-yl]-methanone], the IC50 is 0.955 to 8.71 nM. Regarding `COc1cc2c(cc1OC(F)F)[C@H]1C[C@H](O)CC[C@H]1N=C2c1ccc(C(=O)N(C)C)cc1` (racemic) [Compound 24, 4-[(2RS,4aRS,10bRS)-9-(1,1-Difluoro-methoxy)-2-hydroxy-8-methoxy-1,2,3,4,4a,10b-hexahydro-phenanthridin-6-yl]-N,N-dimethyl-benzamide], the IC50 was 0.955 to 8.71 nM. For `COc1cc2c(cc1OC)[C@H]1C[C@H](O)CC[C@H]1N=C2c1ccc(C(=O)N2CCN(CC(=O)N3CCOCC3)CC2)cc1` (racemic) [Compound 17, 2-(4-{1-[4-((2RS,4aRS,10bRS)-2-Hydroxy-8,9-dimethoxy-1,2,3,4,4a,10b-hexahydro-phenanthridin-6-yl)-phenyl]-methanoyl}-piperazin-1-yl)-1-morpholin-4-yl-ethanone], the IC50 is 0.955 to 8.71 nM. Under `COc1cc2c(cc1OC(F)F)[C@H]1C[C@H](O)CC[C@H]1N=C2c1ccc(C(=O)N2CCCC2)cc1` (racemic) [Compound 33, 1-{4-[(2RS,4aRS,10bRS)-9-(1,1-Difluoro-methoxy)-2-hydroxy-8-methoxy-1,2,3,4,4a,10b-hexahydro-phenanthridin-6-yl]-phenyl}-1-pyrrolidin-1-yl-methanone] stands 0.955 to 8.71 nM; under `COC(=O)CN(C)C(=O)c1ccc(C2=NC3CCC(O)CC3c3cc(OC)c(OC)cc32)cc1` (stereo not shown) [Compound 5], 0.955 to 8.71 nM. In the case of `COc1cc2c(cc1OC)C1CC(O)CCC1N=C2c1ccc(C(=O)N2CCN(CC(=O)N(C)C)CC2)cc1` [Compound 16, 2-(4-{1-[4-((2R,4aR,10bR)-2-Hydroxy-8,9-dimethoxy-1,2,3,4,4a,10b-hexahydro-phenanthridin-6-yiyphenyl]-methanoyl}-piperazin-1-yl)-N,N-dimethyl-acetamide], the 50% inhibitory concentration (IC50) was 0.955 to 8.71 nM.

In general, IC50 refers to the midpoint of a concentration-inhibition curve.
